From PubChem BioAssay (NCI)
Several values for one entry are separate records, joined by “and”; a condition that tells them apart may be missing. Equal entries are not always repeated.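 Five compound concentrations were applied to cells in 96-well plates for 48 hours; endpoints were derived by simple linear interpolation of the resulting dose-response curve. The concentration for 50% growth inhibition is given as GI50. TGI denotes the concentration required for complete inhibition of growth.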

Experiments:
Assay in all cases: growth of human tumour cells (NCI), 48 h
UO-31 renal = system: UO-31 renal
786-0 renal = system: 786-0 renal
MDA-MB-231 breast = system: MDA-MB-231 breast
HL-60(TB) leukemia = system: HL-60(TB) leukemia
K-562 leukemia = system: K-562 leukemia
RXF 393 renal = system: RXF 393 renal
HS 578T breast = system: HS 578T breast
IGROV1 ovarian = system: IGROV1 ovarian
NCI-H23 lung = system: NCI-H23 lung
EKVX NSCLC = system: EKVX NSCLC
COLO 205 colon = system: COLO 205 colon
A549 NSCLC = system: A549 NSCLC
HCT-116 colon = system: HCT-116 colon
M14 melanoma = system: M14 melanoma

| SMILES | TGI (UO-31 renal) [µM] | TGI (786-0 renal) [µM] | TGI (MDA-MB-231 breast) [µM] | TGI (HL-60(TB) leukemia) [µM] | TGI (K-562 leukemia) [µM] | TGI (RXF 393 renal) [µM] | TGI (HS 578T breast) [µM] | TGI (IGROV1 ovarian) [µM] | TGI (NCI-H23 lung) [µM] | TGI (EKVX NSCLC) [µM] | TGI (COLO 205 colon) | TGI (A549 NSCLC) [µM] | TGI (HCT-116 colon) [µM] | TGI (M14 melanoma) [µM] | GI50 (MDA-MB-231 breast) [µM] | GI50 (HL-60(TB) leukemia) [µM] | GI50 (K-562 leukemia) [µM] | GI50 (IGROV1 ovarian) [µM] | GI50 (A549 NSCLC) [µM] | GI50 (HCT-116 colon) [µM] |
| --- | --- | --- | --- | --- | --- | --- | --- | --- | --- | --- | --- | --- | --- | --- | --- | --- | --- | --- | --- | --- |
| CC1(C)CCCCCC(C)(CCCCCCCCCCCO)C1=O (stereo unspecified) | 30.9 | 29.8 | 29.9 | 31.8 | 31 | 31.4 | 32.4 | 32.6 | 30.3 | 32 | 30.9 µM | 29 | 28.8 |  |  |  |  |  |  |  |
| Cc1nc(N)c(N2CCN(Cc3ccccc3)CC2)c(=O)[nH]1 | > 100 | > 100 | > 100 | > 100 | > 100 |  | > 100 |  | > 100 | > 100 | > 100 µM | > 100 | > 100 | > 100 |  |  |  |  |  |  |
| NC(N)=NS(=O)(=O)c1ccc(Nc2c3ccccc3nc3c(C(=O)NC(CO)(CO)CO)cccc23)cc1 | 95.2 | 46.2 | > 100 | 71.4 | > 100 |  | 41.2 | > 100 | > 100 | > 100 | 51.7 µM | 38.2 |  | 68.3 |  |  |  |  |  |  |
| O=C1c2ccccc2C(=O)c2c1oc(=O)c1ccccc21 | 11.4 | 14 | 13.8 | 1.71 | 17.9 | 9.62 | 23.2 | 10.4 | 10.6 | 14.3 | 24.7 µM | > 25 | 4.27 | 16.1 |  |  |  |  |  |  |
| O=c1[nH]c(=O)n(C2OC(CO)C(O)C2O)cc1OCCc1ccccc1 (stereo unspecified) |  | > 100 | > 100 | > 100 |  | > 100 | > 100 | > 100 | > 100 | > 100 | > 100 µM | > 100 | > 100 | > 100 |  |  |  |  |  |  |
| CCN(CC)CCNc1ccc2ncn3c4c(OC)cccc4c(=O)c1c23 | 17.5 | 75 | 25.6 |  | 23.3 | 11.6 | 30.5 | 34.7 | 24.5 | 17.7 | 16.5 µM | 27.6 | 10.1 | 20.9 |  |  |  |  |  |  |
| Fc1ccc(NCn2nc(COc3ccccc3Cl)n(/N=C/c3ccc(-c4ccc(Cl)cc4Cl)o3)c2=S)cc1Cl | > 100 | > 100 | > 100 | 48.9 | 43.6 | 56.6 | > 100 | > 100 | > 100 | > 100 |  |  | > 100 | > 100 |  |  |  |  |  |  |
| c1ccc2c(c1)CCN1CCc3c([nH]c4ccccc34)C21 (stereo unspecified) | > 100 | > 100 | > 100 | 34.3 | 43.3 | 72.3 | > 100 | > 100 | > 100 | 82.1 | 37.8 µM | > 100 | 76.5 | 34 |  |  |  |  |  |  |
| COc1ccc(/C=C(\C(=O)OCC(C)C)c2ccc(OC)c(OC)c2)cc1OC | > 100 | > 100 | 61.5 | > 100 | > 100 | > 100 | > 100 | > 100 | > 100 | > 100 | > 100 µM | > 100 | > 100 | > 100 |  |  |  |  |  |  |
| Cc1nn(-c2ccccc2)c2c1C(c1cc3ccccc3nc1Cl)NC(=S)N2 (stereo unspecified) | 50.4 | > 100 | > 100 | > 100 | > 100 | 71.8 | > 100 | 37.6 | > 100 | > 100 | > 100 µM | > 100 | > 100 | > 100 |  |  |  |  |  |  |
| CC(=O)O[C@H]1[C@H](OC(C)=O)[C@@H](CN=[N+]=[N-])OCO[C@@H]1CN=[N+]=[N-] |  | > 100 | > 100 | > 100 | > 100 | > 100 | > 100 | > 100 | > 100 | > 100 | > 100 µM | > 100 | > 100 | > 100 |  |  |  |  |  |  |
| O=C(N/N=C/C=C/c1ccc([N+](=O)[O-])o1)c1ccc(Br)s1 | 48.9 | 47.5 | 64.9 | 87.2 | > 100 | 30.9 | 31.7 | 16.4 | 33.5 | 95.9 | 33.3 µM | > 100 | 13.3 | 42.1 |  |  |  |  |  |  |
| O=c1oc2cccnc2n1CCN1CCN(c2ccc(Oc3ccccc3)cc2)CC1 | > 100 | > 100 | > 100 | 86.4 | > 100 | > 100 | > 100 | > 100 | > 100 | > 100 |  | > 100 | > 100 | > 100 |  |  |  |  |  |  |
| CCN(CC)c1nc(N(C)C)c2ccc(OC)cc2n1 |  | 89.3 | 75.8 | 17.2 | 66.6 | 34.7 | > 100 | > 100 | > 100 | 21.8 | 21.6 µM | > 100 | 20.1 | 22.2 |  |  |  |  |  |  |
| O=Cc1[nH]c(=O)[nH]c(=O)c1CCl | > 100 | > 100 | > 100 | > 72.9 | > 100 | > 100 | > 100 | > 100 | > 100 | > 100 | > 100 µM | > 100 | > 100 |  |  |  |  |  |  |  |
| N#CC(C#N)=Cc1ccc(C=C2SC3=C(SCCS3)S2)s1 | > 100 | > 100 | > 100 | 7.03 |  |  | > 100 | > 100 | 95.3 | > 100 | > 100 µM | > 100 | > 100 | > 100 |  |  |  |  |  |  |
| CC(=O)N1C(C(=O)NNc2ccccc2)CSC1c1ccccc1 (stereo unspecified) | > 100 | > 100 | > 100 |  | > 100 |  | > 100 | > 100 | > 100 | > 100 | > 100 µM | > 100 | > 100 | > 100 |  |  |  |  |  |  |
| CCCC(=O)/C=C/S/C=C/C(=O)CCC | > 100 | 4.98 | 23.8 |  |  | 21.4 | 36.3 | 47.9 | 7.7 | 10.6 |  | > 100 |  | 9 |  |  |  |  |  |  |
| O=C(Nc1nncs1)NS(=O)(=O)n1cnc2ccccc21 |  | > 100 | > 100 | > 100 |  | > 100 | > 100 | > 100 | > 100 | > 100 | > 100 µM | > 100 | > 100 | > 100 |  |  |  |  |  |  |
| CC(=O)OCC1OC(n2c3c(cc(C#N)c2=S)CCCCCC3)C(OC(C)=O)C(OC(C)=O)C1OC(C)=O (stereo unspecified) | > 100 | > 100 | > 100 | > 100 | > 100 | > 100 | > 100 | > 100 | > 100 |  | > 100 µM | > 100 | > 100 | > 100 |  |  |  |  |  |  |
| O=C1/C(=C/c2ccc(Cl)cc2)N=C(c2ccccc2)N1C1Nc2cc3c(cc2S1)NC(N1C(=O)/C(=C/c2ccc(Cl)cc2)N=C1c1ccccc1)S3 (stereo unspecified) | > 100 | > 100 | > 100 | 2.47 | > 100 | > 100 | > 100 | > 100 | > 100 | > 100 |  |  | > 100 | > 100 |  |  |  |  |  |  |
| COc1cc(/C=C/c2sc3ccccc3[n+]2C)ccc1N(C)C |  | 24.8 | 23.2 | 3.88 | 6.16 | 33.5 | > 100 | 22 | 27.7 | > 100 | 2.76 µM and 2.86 µM | > 100 | 17.9 | 27.1 | 11.2 | 1.75 | 1.86 | 9.14 | 7.08 | 6.05 |
| OCCCCn1cc(Cn2ncc3c(SCc4ccccc4)ncnc32)nn1 | > 100 | > 100 | > 100 |  | > 100 | > 100 | > 100 | > 100 | > 100 | > 100 | 91.4 µM | > 100 | > 100 | > 100 |  |  |  |  |  |  |
| O/N=C1/CCCCCC1NO (stereo unspecified) | > 100 | > 100 | > 100 |  |  | > 100 | > 100 | > 100 | > 100 | > 100 | > 100 µM | > 100 | > 100 | > 100 |  |  |  |  |  |  |
| CC(C)CCNC(=O)c1ccc(CNC(=O)/C=C/c2csc(-c3ccccc3)n2)cc1 | 58.6 | > 100 | > 100 |  | > 100 | 73.6 | > 100 | > 100 | > 100 | > 100 | > 100 µM | > 100 | > 100 | > 100 |  |  |  |  |  |  |
| c1cc2cc(c1)CN1CCNCCN(CCNCC1)Cc1cccc(c1)CN1CCNCCN(CCNCC1)C2 | > 100 | > 100 | > 100 |  | > 100 |  | > 100 | > 100 | > 100 | > 100 | > 100 µM | > 100 | > 100 | > 100 |  |  |  |  |  |  |
